Biological target: Tubulin alpha chain (Sus scrofa, UniProt P02550)
Assay: Evaluated for the inhibitory concentration against porcine brain tubulin polymerization
Format: functional

Sequence of Tubulin alpha chain (P02550 whole entry, looked up): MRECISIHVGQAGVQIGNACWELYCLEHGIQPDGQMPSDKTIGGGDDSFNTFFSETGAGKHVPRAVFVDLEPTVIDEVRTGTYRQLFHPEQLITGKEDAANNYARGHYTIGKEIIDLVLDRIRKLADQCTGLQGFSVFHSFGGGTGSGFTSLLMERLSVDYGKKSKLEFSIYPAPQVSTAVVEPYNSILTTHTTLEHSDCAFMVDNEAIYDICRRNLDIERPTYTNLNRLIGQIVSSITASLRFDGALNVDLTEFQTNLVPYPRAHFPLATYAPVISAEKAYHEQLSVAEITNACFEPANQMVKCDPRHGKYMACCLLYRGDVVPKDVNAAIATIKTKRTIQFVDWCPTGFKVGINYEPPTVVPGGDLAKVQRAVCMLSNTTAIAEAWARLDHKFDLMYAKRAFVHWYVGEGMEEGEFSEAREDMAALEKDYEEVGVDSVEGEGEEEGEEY

IC50 [µM] | Structure (SMILES)
> 100 | COc1ccc(N(Cc2cc(OC)c(OC)c(OC)c2)C(C)=O)cc1O
100 | COc1ccc(CNc2cc(OC)c(OC)c(OC)c2)cc1O
7.5 | CCCCN(Cc1cc(OC)c(OC)c(OC)c1)c1ccc(OC)c(O)c1
> 100 | COc1ccc(N(C)C(=O)c2cc(OC)c(OC)c(OC)c2)cc1O
15 | CCN(Cc1cc(OC)c(OC)c(OC)c1)c1ccc(OC)c(O)c1
45 | COc1ccc(N(C)Cc2cc(OC)c(OC)c(OC)c2)cc1O
100 | COc1ccc(CN(C)c2cc(OC)c(OC)c(OC)c2)cc1O
> 100 | COc1ccc(C(=O)N(C)c2cc(OC)c(OC)c(OC)c2)cc1O
> 100 | COc1ccc(C(=O)Nc2cc(OC)c(OC)c(OC)c2)cc1O
> 100 | CCC(=O)N(Cc1cc(OC)c(OC)c(OC)c1)c1ccc(OC)c(O)c1
5.4 | CCCN(Cc1cc(OC)c(OC)c(OC)c1)c1ccc(OC)c(O)c1
20 | COc1ccc(N(CCCCCO)Cc2cc(OC)c(OC)c(OC)c2)cc1O
20 | CCCCCCN(Cc1cc(OC)c(OC)c(OC)c1)c1ccc(OC)c(O)c1
20 | CCCCCN(Cc1cc(OC)c(OC)c(OC)c1)c1ccc(OC)c(O)c1
> 100 | COc1ccc(NC(=O)c2cc(OC)c(OC)c(OC)c2)cc1O
100 | COc1ccc(NCc2cc(OC)c(OC)c(OC)c2)cc1O
40 | COc1ccc(N(CCCC(=O)O)Cc2cc(OC)c(OC)c(OC)c2)cc1O

— ChEMBL document CHEMBL1151593, “Synthesis and nti-tubulin activity of aza-combretastatins” (Bioorg Med Chem Lett, 1994)
